Source: US20250171459A1, “2-METHYL-4',5'-DIHYDROSPIRO[PIPERIDINE-4,7'-THIENO[2,3-C]PYRAN] DERIVATIVES AS INHIBITORS OF APOL1 AND METHODS OF USING SAME” (Vertex Pharmaceuticals Incorporated, priority 2022, published 2025)

Biological target: T1, APOL1 (Homo sapiens, UniProt O14791)
T1 sequence (O14791 1-398 S342G/I384M): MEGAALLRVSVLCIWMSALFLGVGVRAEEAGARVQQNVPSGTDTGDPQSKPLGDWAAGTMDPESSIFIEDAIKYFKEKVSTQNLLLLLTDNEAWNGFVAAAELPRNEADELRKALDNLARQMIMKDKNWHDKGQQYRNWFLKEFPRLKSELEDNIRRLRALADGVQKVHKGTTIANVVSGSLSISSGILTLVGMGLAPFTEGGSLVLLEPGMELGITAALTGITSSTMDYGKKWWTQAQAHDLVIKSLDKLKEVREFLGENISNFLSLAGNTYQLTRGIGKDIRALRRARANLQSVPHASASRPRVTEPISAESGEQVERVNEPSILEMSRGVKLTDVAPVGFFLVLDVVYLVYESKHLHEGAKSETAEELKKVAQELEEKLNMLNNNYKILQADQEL
Assay: MultiTox-Fluor Multiplex Cytotoxicity Assay in tet-inducible APOL1 T-REx-HEK293 cells (cell rescue, ratio of dead to live cells)
Type: cell-based
Conditions: tet-inducible transgenic APOL1 T-REx-HEK293 cell lines, 50 ng/mL tet, 24 hours; read-out: IP50 (i.e., IC50 for cell proliferation)
Summary of the method: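 T-REx-HEK293 cells with tet-inducible APOL1 were treated with compound (10 μM top, 10-point 3-fold dilution, duplicate) plus 50 ng/mL tetracycline for 24 h at 37° C, in DMEM with 2% tet-free FBS. MultiTox-Fluor protease signals gave a dead/live ratio, normalized to no tet (100% viability) and tet alone (0%).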

| Compound | IC50 [nM] |
| --- | --- |
| C[C@H]1C[C@@]2(CCN1Cc1ccncc1F)OCCc1cc(Cl)sc12 [Compound 678] | 500 to 1000 |
| C[C@H]1C[C@@]2(CCN1Cc1cn3c(n1)CCC3)OCCc1cc(Cl)sc12 [Compound 679] | 500 to 1000 |
| Cc1cccc(CN2CC[C@]3(C[C@@H]2C)OCCc2cc(Cl)sc23)n1 [Compound 680] | 500 to 1000 |
| C[C@H]1C[C@@]2(CCN1Cc1ccnn1C)OCCc1cc(Cl)sc12 [Compound 681] | 500 to 1000 |
| C[C@H]1C[C@@]2(CCN1Cc1ccccc1F)OCCc1cc(Cl)sc12 [Compound 682] | 100 to 500 |
| Cc1ncc(CN2CC[C@]3(C[C@@H]2C)OCCc2cc(Cl)sc23)n1C [Compound 683] | 500 to 1000 |
| C[C@H]1C[C@@]2(CCN1Cc1ncccc1F)OCCc1cc(Cl)sc12 [Compound 684] | 500 to 1000 |
| C[C@H]1C[C@@]2(CCN1CC1CCOCC1)OCCc1cc(Cl)sc12 [Compound 685] | 500 to 1000 |
| C[C@H]1C[C@@]2(CCN1Cc1ncn3ccccc13)OCCc1cc(Cl)sc12 [Compound 686] | 500 to 1000 |
| C[C@H]1C[C@@]2(CCN1Cc1cccc(F)c1O)OCCc1cc(Cl)sc12 [Compound 687] | 500 to 1000 |
| C[C@H]1C[C@@]2(CCN1Cc1cccc(F)c1)OCCc1cc(Cl)sc12 [Compound 688] | 500 to 1000 |
| COc1cccc(CN2CC[C@]3(C[C@@H]2C)OCCc2cc(Cl)sc23)n1 [Compound 689] | 500 to 1000 |
| C[C@H]1C[C@@]2(CCN1Cc1cccc(Cl)c1O)OCCc1cc(Cl)sc12 [Compound 690] | 500 to 1000 |
| Cc1cnccc1CN1CC[C@]2(C[C@@H]1C)OCCc1cc(Cl)sc12 [Compound 693] | 500 to 1000 |
| C#CC(C)N1CC[C@]2(C[C@@H]1C)OCCc1cc(Cl)sc12 (stereo partly drawn) [Compound 694, (2′S, 7R)-2-chloro-2′-methyl-1′-(1-methylprop-2-ynyl)spiro[4,5-dihydrothieno[2,3-c]pyran-7,4′-piperidine]] | 500 to 1000 |
| C[C@H]1C[C@]2(CCN1Cc1cn(CCS(C)(=O)=O)nn1)OCCc1cc(Cl)sc12 [Compound 695, (2′S,7S)-2-chloro-2′-methyl-1′-[[1-(2-methylsulfonylethyl)triazol-4-yl]methyl]spiro[4,5-dihydrothieno[2,3-c]pyran-7,4′-piperidine]] | 500 to 1000 |
| C[C@H]1C[C@@]2(CCN1Cc1cn(CCS(C)(=O)=O)nn1)OCCc1cc(Cl)sc12 [Compound 696, (2′S, 7R)-2-chloro-2′-methyl-1′-[[1-(2-methylsulfonylethyl)triazol-4-yl]methyl]spiro[4,5-dihydrothieno[2,3-c]pyran-7,4-piperidine]] | 100 to 500 |
| C[C@H]1C[C@@]2(CCN1Cc1cnn(CCS(C)(=O)=O)c1)OCCc1cc(Cl)sc12 [Compound 697, (2′S, 7R)-2-chloro-2′-methyl-1′-[[1-(2-methylsulfonylethyl)pyrazol-4-yl]methyl]spiro[4,5-dihydrothieno[2,3-c]pyran-7,4′-piperidine]] | < 100 |
| C[C@H]1C[C@@]2(CCN1Cc1cn[nH]c1)OCCc1cc(Cl)sc12 [Compound 698, (2′S, 7R)-2-chloro-2′-methyl-1′-(1H-pyrazol-4-ylmethyl)spiro[4,5-dihydrothieno[2,3-c]pyran-7,4′-piperidine]] | < 100 |
| COCCn1cc(CN2CC[C@]3(C[C@@H]2C)OCCc2cc(Cl)sc23)cn1 [Compound 699, (2S,7R)-2′-chloro-1-((1-(2-methoxyethyl)-1H-pyrazol-4-yl)methyl)-2-methyl-4′,5′-dihydrospiro[piperidine-4,7′-thieno[2,3-c]pyran]] | < 100 |
| C[C@H]1C[C@@]2(CCN1Cc1cnn(CC(=O)N(C)C)c1)OCCc1cc(Cl)sc12 [Compound 700] | < 100 |
| C[C@H]1C[C@@]2(CCN1Cc1cnn(Cc3cccnc3)c1)OCCc1cc(Cl)sc12 [Compound 701] | < 100 |

| Compound | IC50 [nM] |
| --- | --- |
| CCn1cc(CN2CC[C@]3(C[C@@H]2C)OCCc2cc(Cl)sc23)cn1 [Compound 702] | < 100 |
| CNC(=O)Cn1cc(CN2CC[C@]3(C[C@@H]2C)OCCc2cc(Cl)sc23)cn1 [Compound 703] | < 100 |
| CC(C)Cn1cc(CN2CC[C@]3(C[C@@H]2C)OCCc2cc(Cl)sc23)cn1 [Compound 704] | 100 to 500 |
| C[C@H]1C[C@@]2(CCN1Cc1cnn(CC(N)=O)c1)OCCc1cc(Cl)sc12 [Compound 705] | 100 to 500 |
| C[C@H]1C[C@@]2(CCN1Cc1cnn(CC3CCOCC3)c1)OCCc1cc(Cl)sc12 [Compound 706] | < 100 |
| C[C@H]1C[C@@]2(CCN1Cc1cnn(Cc3ccc(F)cc3)c1)OCCc1cc(Cl)sc12 [Compound 707] | < 100 |
| C[C@H]1C[C@@]2(CCN1C[C@H](O)C(N)=O)OCCc1cc(Cl)sc12 [Compound 708, (2S)-3-[(2′S, 7R)-2-chloro-2′-methyl-spiro[4,5-dihydrothieno[2,3-c]pyran-7,4′-piperidine]-1′-yl]-2-hydroxy-propanamide] | 100 to 500 |
| C[C@H]1C[C@@]2(CCN1C[C@@H](O)C(N)=O)OCCc1cc(Cl)sc12 [Compound 709, (2R)-3-[(2′S, 7R)-2-chloro-2′-methyl-spiro[4,5-dihydrothieno[2,3-c]pyran-7,4′-piperidine]-1′-yl]-2-hydroxy-propanamide] | 100 to 500 |
| CNC(=O)[C@@H](O)CN1CC[C@]2(C[C@@H]1C)OCCc1cc(Cl)sc12 [Compound 710, (2S)-3-[(2′S, 7R)-2-chloro-2′-methyl-spiro[4,5-dihydrothieno[2,3-c]pyran-7,4′-piperidine]-1′-yl]-2-hydroxy-N-methyl-propanamide] | 500 to 1000 |
| C[C@H]1C[C@@]2(CCN1C[C@H](O)C(=O)N(C)C)OCCc1cc(Cl)sc12 [Compound 711, (2S)-3-[(2′S, 7R)-2-chloro-2′-methyl-spiro[4,5-dihydrothieno[2,3-c]pyran-7,4′-piperidine]-1′-yl]-2-hydroxy-N,N-dimethyl-propanamide] | 100 to 500 |
| C[C@H]1C[C@@]2(CCN1Cc1cccc(Cl)c1O)OCCc1c2sc(Cl)c1CO [Compound 712, 2-chloro-6-[[(2′S, 7R)-2-chloro-3-(hydroxymethyl)-2′-methyl-spiro[4,5-dihydrothieno[2,3-c]pyran-7,4′-piperidine]-1′-yl]methyl]phenol] | 500 to 1000 |
| C[C@H]1C[C@@]2(CCN1Cc1ccccc1F)OCCc1c2sc(Cl)c1CO [Compound 713] | 100 to 500 |
| C[C@H]1C[C@@]2(CCN1Cc1ccc(N3CCCC3=O)cc1)OCCc1c2sc(Cl)c1CO [Compound 714] | < 100 |
| C[C@H]1C[C@@]2(CCN1Cc1ccc(OCCO)cc1)OCCc1c2sc(Cl)c1CO [Compound 715] | < 100 |
| COc1cc(OCC(N)=O)ccc1CN1CC[C@]2(C[C@@H]1C)OCCc1c2sc(Cl)c1CO [Compound 716] | 100 to 500 |
| Cc1nccn1-c1ccc(CN2CC[C@]3(C[C@@H]2C)OCCc2c3sc(Cl)c2CO)cc1 [Compound 717] | 100 to 500 |
| C[C@H]1C[C@@]2(CCN1Cc1cccc(OCC(N)=O)c1)OCCc1c2sc(Cl)c1CO [Compound 718] | 100 to 500 |
| C[C@H]1C[C@@]2(CCN1Cc1cn(C)nn1)OCCc1c2sc(Cl)c1CO [Compound 719] | 100 to 500 |
| COc1cnc(CN2CC[C@]3(C[C@@H]2C)OCCc2c3sc(Cl)c2CO)cn1 [Compound 720] | 100 to 500 |
| C[C@H]1C[C@@]2(CCN1CCCn1cccn1)OCCc1c2sc(Cl)c1CO [Compound 721] | 500 to 1000 |
| Cc1cncc(CN2CC[C@]3(C[C@@H]2C)OCCc2c3sc(Cl)c2CO)c1 [Compound 723] | 100 to 500 |
